# Active and inactive are the calls of the source. How the calls were made is not given here.
# Assay: NCOA3 reporter inhibition potency – cell-based, luminescence, counter-screen for SRC1 inhibitor project, dose response (AID 602234);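 further: HEK293 cells co-transfected with pGL4.31 reporter and pBIND-SRC3 fusion vector; potency for inhibition of reporter luminescence with Gossypol as full inhibition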
# Conditions: transfected HEK293 cells, counter-screen luciferase reporter
row,SMILES,IC50
1,COc1ccc2[nH]c(=O)c(CN(CCN3CCCC3)C(=O)Nc3ccccc3Cl)cc2c1,8.7 µM
2,N#Cc1c2ccc(O)cc2n2ccccc12,1.38 µM
3,CCN(Cc1ccncc1)C(=O)CC1C(=O)NCCN1Cc1ccc(F)c(F)c1 (stereo not drawn),4.94 µM
4,O=C(N/N=C/c1coc2ccc(Cl)cc2c1=O)c1ccc(O)cc1,3.61 µM
5,Cc1ccc(NC(=O)C2CCN(c3ncnc4sc(C)c(C)c34)CC2)cc1S(=O)(=O)N(C)C,> 12 µM (inactive)
6,Cc1nc2c(-c3ccc(Cl)cc3)c(C)[nH]n2c(=O)c1Cc1ccccc1,4.49 µM
7,CC(=O)C1=C(C)NC2=C(C(=O)CC(C)(C)C2)C1C (stereo not drawn),7.94 µM
8,O=C(O)c1ccccc1-c1c2cc(I)c(=O)c(I)c-2oc2c(I)c(O)c(I)cc12,> 35.9 µM (inactive)
9,CN(Cc1cnc2nc(N)nc(N)c2n1)c1ccc(C(=O)NC(CCC(=O)O)C(=O)O)c2ccccc12 (stereo not drawn),0.0186 µM
10,Cc1cccn2c(=O)c3cc(C(=O)NCCN4CCOCC4)c(=N)n(Cc4cccnc4)c3nc12,12.7 µM (inactive)
11,Cc1c(C(=O)N/N=C/C(C)C)[nH]c2ccc([N+](=O)[O-])cc12,17 µM (inactive)
12,Cc1sc2ncnc(N3CCC(C(=O)Nc4cc(S(C)(=O)=O)ccc4Cl)CC3)c2c1C,10.1 µM (inactive)
13,CCCCCOc1ccc(/C=C/c2c([N+](=O)[O-])c(=O)n(C)c(=O)n2C)cc1,4.32 µM
14,NC(=S)NN=Cc1nccc2ccccc12,0.434 µM
15,O=[N+]([O-])c1ccc2c(c1)-c1ccccc1C2=NO,3.34 µM
16,COc1cc(C(=O)N/N=C(\c2ccccc2)c2ccccn2)cc(OC)c1OC,9.58 µM
17,CCCc1cc(C(=O)N(C)CC(=O)Nc2ccc(OCC)c(OCC)c2)sc1C,> 35.9 µM (inactive)
18,CCN(C(=O)c1cccc(S(=O)(=O)N(C)C)c1)C12CC3CC(CC(C3)C1)C2,13.8 µM (inactive)
19,S=C(c1ccc(-c2ccccc2)cc1)N1CCOCC1,7.59 µM
20,COc1ccc(-c2ncncc2-c2ccccc2)c(O)c1,4.24 µM
21,COc1ccccc1CNC(=O)C(=O)NCCC1CCCCN1S(=O)(=O)c1ccc(C)cc1 (stereo not drawn),10.2 µM (inactive)
22,CCC(=O)c1ccc(Oc2nc3c(c(=O)n(C)c(=O)n3C)n2CC)cc1,2.87 µM

row,SMILES,IC50
1,Cc1ccc(OCC(=O)c2cc(C)n(Cc3cccs3)c2C)c([N+](=O)[O-])n1,5.23 µM
2,OCCN1CCN(C(=S)c2ccc(-c3ccccc3)cc2)CC1,1.28 µM
3,COc1ccc(-c2cnc(N)nc2-c2ccc(OC)cc2O)cc1,7.07 µM
4,O=C(CCl)NC(Cc1ccccc1)c1ccccc1 (stereo not drawn),6.42 µM
5,CCn1c(Oc2cccc(Br)c2)nc2c1c(=O)n(C)c(=O)n2C,17 µM (inactive)
6,COc1ccc(OC)c(/C=C2\NC(=O)NC2=O)c1,5.99 µM
7,COc1ccc2c(=O)cc(-c3ccncc3)oc2c1OC,3.16 µM
8,CCCCC(CC)COCCCN=Cc1c(O)[nH]c(=S)[nH]c1=O (stereo not drawn),5.74 µM
9,Nc1ccc(-c2cc3ccccc3oc2=O)cc1,3.62 µM
10,CC(=O)c1cccc(NC(=O)COc2cc3oc(=O)c(CC(C)O)c(C)c3cc2Cl)c1 (stereo not drawn),6.25 µM
11,Cc1sc2ncnc(N3CCC(C(=O)N(C)CC(=O)Nc4cccc(F)c4)CC3)c2c1C,8.1 µM
12,CC(C)(C)NC(=O)C1(C)CCC(=O)N1CCCn1ccnc1 (stereo not drawn),4.51 µM
13,Cn1nc(C(F)(F)F)c(C#N)c1N1CCN(c2ccccc2)CC1,4.13 µM
14,COc1ccccc1N(C(=O)CCl)c1cn(C(C)=O)c2ccccc12,3.76 µM
15,Fc1ccc(CSc2nnc(-c3ccncc3)o2)cc1,2.69 µM
16,Nc1ccn([C@@H]2O[C@H](CO)[C@@H](O)C2O)c(=O)n1 (stereo partly drawn),7.53 µM
17,CC1CC(C)C(=NNC(N)=O)C(C(O)CC2CCC(=O)NC2=O)C1 (stereo not drawn),7.99 µM
18,COc1cc(C2c3cc4c(cc3C(OC3OC5COC(c6cccs6)OC5C(O)C3O)C3COC(=O)C23)OCO4)cc(OC)c1O (stereo not drawn),0.0913 µM
19,c1ccc(-c2csc3ncnc(NCCN4CCOCC4)c23)cc1,8.04 µM
20,CC(=O)c1cc2c(C)cc(=O)oc2cc1O,11.2 µM (inactive)
21,O=C(O)CN1C(=O)/C(=C\c2ccccc2OCc2ccc(Cl)cc2Cl)SC1=S,11 µM (inactive)
22,Nc1ncccc1C(=O)OCC(=O)N1CCN(S(=O)(=O)c2ccc(Cl)cc2)CC1,8.27 µM

row,SMILES,IC50
1,O=C(Nc1nc(-c2ccccn2)cs1)c1cccc(-n2cnnn2)c1,21.7 µM (inactive)
2,O=C(Nc1cccc(Cl)c1)Nc1nnc(-c2ccncc2)s1,3.62 µM
3,COc1ccccc1NS(=O)(=O)c1cccc(NC(=O)c2cncc(Br)c2)c1,7.71 µM
4,Cc1ccc(N(Cc2cc(=O)[nH]c3ccccc23)C(=O)CCl)c(C)c1,2.67 µM
5,CC1CCN(C(=O)c2scc3c2OCCO3)CC1,10 µM (inactive)
6,c1ccc(-c2nnc(-c3ccccn3)nc2NC2CCCCC2)cc1,2.89 µM
7,Cn1nc(C(F)(F)F)c(C#N)c1N1CCN(c2ccc(F)cc2)CC1,2.13 µM
8,Cc1ccc(OCC(=O)c2cc(C)n(-c3ccccc3)c2C)c([N+](=O)[O-])n1,2.46 µM
9,O=C(N/N=C/c1ccc(O)cc1O)/C(=C/c1ccccc1)CCO,5.37 µM
10,CCn1c2ccccc2c2cnc(N=CN(C)C)c(C#N)c21,11.3 µM (inactive)
11,COc1cccc(NC(=O)CN(C)CC(=O)Nc2ccc(Cl)cc2[N+](=O)[O-])c1,17.8 µM (inactive)
12,CC(=O)NC(c1cc(Cl)c2cccnc2c1O)C1CC1 (stereo not drawn),6.13 µM
13,O=C(Nc1c(-c2ccccc2)[nH][nH]c1=O)c1cccc(C(F)(F)F)c1,> 35.8 µM (inactive)
14,O=[N+]([O-])c1cccc2c1ccc1ncccc12,10.3 µM (inactive)
15,O=C(O)c1ccccc1C(=O)Nc1ccc(Oc2cccc3ccccc23)cc1,> 35.9 µM (inactive)
16,CN(C)C=Nc1c(C(=O)c2ccccc2)sc2nccc(N(C)C)c12,6.82 µM
17,Cc1c(CC(=O)NCCCC(=O)O)c(=O)oc2cc3c(cc12)CCC(C)(C)O3,3.86 µM
18,CCc1ccc(-c2nc(CSCC(=O)NCc3ccco3)c(C)o2)cc1,6.43 µM
19,Cc1ccc(C)c(NC(=O)c2ccccc2NS(=O)(=O)c2cc([N+](=O)[O-])ccc2C)c1,1.44 µM
20,O=C(CCC1CCCC1)Nc1ccc(C(=O)NCc2cccnc2)cc1,34.2 µM (inactive)
21,Cc1nn(CC(=O)N2CCN(c3cccc(C(F)(F)F)c3)CC2)c(=O)c2cccn12,5.11 µM
22,COc1ccc(Nc2ncnc3ccc(Br)cc23)c(OC)c1,2.75 µM

row,SMILES,IC50
1,c1cnc2ccc(-n3ccnc3)cc2c1,7.69 µM
2,COc1ccc(Oc2nc3c(c(=O)n(C)c(=O)n3C)n2C)cc1,7.76 µM
3,COc1ccc(/C=C2\CC/C(=C\c3ccc(OC)c(OC)c3)C2=O)cc1OC,5.96 µM
4,O=[N+]([O-])c1ccc(N(CCO)CCO)c2c1no[n+]2[O-],6.44 µM
5,C=CCNc1ncnc2ccc(Br)cc12,2.3 µM
6,COc1ccccc1-c1cc2nc(-c3ccccc3)cc(N3CCN(C(=O)c4ccco4)CC3)n2n1,5.66 µM
7,c1nc2sc3c(c2c2nnnn12)CCCC3,9.84 µM
8,COc1cc(/C=C2\SC(N)=NC2=O)cc(OC)c1,7.14 µM
9,Cc1nc2ccccn2c1-c1ccnc(=S)[nH]1,4.25 µM
10,Cc1cc(=O)[nH]c(Nc2cccc(Br)c2)n1,6.81 µM
11,COc1ccc(/C=C2/SC(=S)N(CCC(=O)O)C2=O)cc1,1.07 µM
12,COc1ccc2c(c1)-c1c(ssc1=S)C(C)(C)N2C(=O)CSC1=NCCS1,11.2 µM (inactive)
13,Cc1ccc(S(=O)(=O)N2[C@@H](c3ccc(C(C)(C)C)cc3)C(C(=O)O)=CC[C@H]2c2ccc(Cl)cc2)cc1,10.4 µM (inactive)
14,COc1cc([C@@H]2c3cc4c(cc3[C@@H](O[C@@H]3O[C@@H]5CO[C@@H](C)O[C@H]5[C@H](O)[C@H]3O)[C@H]3COC(=O)[C@H]23)OCO4)cc(OC)c1O,0.375 µM
15,O=C(NC(NC(=S)N1CCOCC1)C(Cl)(Cl)Cl)c1ccc(Cl)cc1 (stereo not drawn),3.94 µM
16,O=C1CCC/C1=c1\s/c(=C/c2cccnc2)c(=O)n1-c1ccccc1,6.2 µM
17,OCCN(CCO)CC(O)COc1ccc(C23CC4CC(CC(C4)C2)C3)cc1 (stereo not drawn),12.1 µM (inactive)
18,Cc1noc(/C=C/c2ccco2)c1S(=O)(=O)N1CCC(C(=O)Nc2ccc(Cl)cn2)CC1,11.3 µM (inactive)
19,CCOc1cccc(/C=N/NC(=O)c2cc(C3CC3)[nH]n2)c1O,14.8 µM (inactive)
20,CC(C)Cn1c(N)c(C(=O)COC(=O)c2cc3ccccc3cc2O)c(=O)n(C)c1=O,> 12 µM (inactive)
21,CCCCN(CCCC)c1ncnc2nc[nH]c12,2.14 µM
22,COc1ccc2c(C#N)c3ccccn3c2c1,11.2 µM (inactive)

row,SMILES,IC50
1,O=C(N/N=C(\c1ccccc1)c1ccccn1)c1ccccc1Cl,4.57 µM
2,O=C1c2cccc(OCc3ccc(F)cc3)c2CCN1Cc1ccccc1,4.15 µM
3,CC(C)(C)OC(=O)NCC(=O)Oc1cc2oc(=O)cc(-c3ccccc3)c2cc1Cl,11.5 µM (inactive)
4,O=C(NC(=S)Nc1ccc(N2CCN(C(=O)c3ccccc3)CC2)cc1)c1cccs1,7.01 µM
5,Cc1ccc(/C=C2/SC(=S)N(CCCC(=O)Nc3ccc(O)cc3)C2=O)cc1,3.23 µM
6,COc1cc(OC)c2cc(C(=O)N/N=C/c3cccc(OC)c3O)[nH]c2c1,3.56 µM
7,N#Cc1cc2ccncc2c2ccccc12,4.76 µM
8,Cc1ccccc1C(=O)/C(C#N)=N/Nc1c(C)n(C)n(-c2ccccc2)c1=O,3.53 µM
9,CCOc1ccc(/C=C2\SC(=S)N(CCC(=O)O)C2=O)cc1,2.12 µM
10,Cc1c(/C(O)=C2/C(=O)C(=O)N(Cc3cccnc3)C2c2ccccn2)cnn1-c1ccccc1 (stereo not drawn),6.55 µM
11,CCOc1ccc(/C=C2\SC(=S)N(CCCC(=O)NCCCN3CCOCC3)C2=O)cc1,5.91 µM
12,CC(=O)N1CCN(c2ccc(Oc3ncnc4sccc34)cc2)CC1,4.79 µM
13,Cc1ccc(N=c2c([N+](=O)[O-])nn(-c3ccc4c(c3)OCCO4)n2O)cc1F,3.24 µM
14,O=C(OC(c1ccccc1)c1nccc2ccccc12)c1ccccc1 (stereo not drawn),0.661 µM
15,O=C(CCl)N1N=C(c2ccco2)CC1c1ccco1 (stereo not drawn),0.762 µM
16,O=C(NC1CCCCC1)C(c1cccnc1)N(C(=O)CCl)c1cccc(Cl)c1 (stereo not drawn),0.503 µM
17,CS(=O)(=O)Nc1cccc(NC(=O)C2Cc3c(-c4ccco4)ccnc3O2)c1 (stereo not drawn),> 12 µM (inactive)
18,CN(CC(=O)Nc1ccc(Cl)c(C(F)(F)F)c1)C(=O)C1CC(=O)N(c2ccc3c(c2)OCCO3)C1 (stereo not drawn),7.04 µM
19,O=C(N/N=C/c1cc([N+](=O)[O-])ccc1O)c1cccc(N2CCCC2=O)c1,> 12 µM (inactive)
20,Nc1ccn(C2OC(CO)C(O)C2O)c(=O)n1 (stereo not drawn),6.77 µM

# Reference: PubChem BioAssay AID602234 (The Scripps Research Institute Molecular Screening Center, 2012)
